Reference: patent publication US20050171206A1, “Therapeutical use” (priority 2004, published 2005)
“And” between values parts separate entries of the source, which are not always exact repeats. Equal entries are not always repeated.

Columns and labels:
[1] = cited from earlier work
children with SMA II = test: Joint contractures (Example 2); type: in vivo, human; conditions: between baseline and 9 weeks
Procedure: Measurements lasted 3 to 5 seconds. The scores were grouped in a leg mega score and arm megascore by adding the best readings for each individual muscle within the subgroup and subdividing this score by the number of muscles examined. Intra-observer variation performed before the implementation of the study was less than 5%. Both myometry and measurement of joint contractures were performed by the same physiotherapist.

SMA patients and parents = test: Clinical observations and tolerability, pilot trial (Example 1); type: in vivo, human
Procedure: (§1) Six SMA patients (P1-P6) and three parents (M2, M3, F6) were enrolled for a pilot trial. Four patients had SMA type II (P1-P4). P1 is a child who had lost the ability to sit unaided. P3 is […] and P4 and P5 are both […]. Two patients (P5 and P6) had SMA type III. The trial was approved by the Ethical Committee of the Catholic University. A written informed consent was obtained from all patients/parents. triButyrate®, the sodium salt of phenylbutyrate was administered at 500 mg/kg/d (maximum dose 19 g/d), divided in 6 doses(every 4 hours) for 7 days. Blood samples were taken from patients and parents on day 0 (T0, baseline) and on days 1-4 (T1-T4) and 7 (T7) of drug administration, and from 5 healthy untreated controls on 5 consecutive days (T0-T4). Total RNA was extracted by Trizol from leukocytes immediately after hypotonic lysis of samples.
These subjective improvements prompted us to perform myometry in the other four patients on day 0 and 7 (table 1.2).

[2] = tested on: children with SMA II older than 5 years; test: Forced vital capacity by spirometer (Example 2); type: in vivo, human; set-up: FVC: unit not given here; conditions: for FVC: individual children
Procedure: (§2) The sodium salt of phenylbutyrate (triButyrate®) was administered orally in powder or tablets at 500 mg/kg/d (maximum dose 19 g/d), divided in 5 doses (every 4 hours except for an 8 hours night interval). An intermittent schedule (7 days on and 7 days off) was arbitrarily chosen, similarly to a previously reported schedule for treatment of sickle cell disease. (Atweh G F, Sutton M, Nassif I, Boosalis V, Dover G J, Wallen-stein S, Wright E, McMahon L, Stamatoyannopoulos G, Faller D V, Perrine S P Blood.1999;93:1790-97.) When this dosage was tolerated, patients were advised to continue for 9 weeks (5 weeks on and 4 weeks off).
(§3) The assessment consisted of a detailed clinical physiotherapy evaluation including the Hammersmith functional motor scale and, in children older than 5 years, assessment of muscle strength and of forced vital capacity.
This was measured using a standard spirometer (Spyroanalyser ST-95, Fukuda Sangyo Co, LTD, Philippines) and using the best of three attempts.

[3] = 200 g per person and day; cited from earlier work
[4] = tested on: children with SMA II (motor function); test: Hammersmith functional motor scale, open trial in SMA II children (Example 2); type: in vivo, human; conditions: for Hammersmith functional scale score, mean: 10 children, baseline mean 13
Source text: Thirteen patients with SMA II, all with homozygous absence of SMN1, followed at the Bambino Gesu Hospital or at the UILDM centre in Rome were asked to participate in the present prospective open trial. In order to have a relatively homogeneous cohort of patients who could all be tested on the same scale only children with SMA II between 30 months and 12 years were included. Children younger than 30 months were excluded as the Hammersmith scale can only be reliably and consistently performed and scored after this age. (Main M, Kairon H, Mercuri E, Muntoni F. Eur J Paediatr Neurol. 2003;7:155-59.) Children older than 12 were excluded as after this age several complications, such as severe scoliosis and contractures are more frequent. Children who had been part of other pharmacological trials (e.g. salbutamol, creatine) in the year before the present trial started or who had had corrective surgery for scoliosis were also excluded.
as §2, §3
The scale consists of 20 items, each scored on a 3 point scoring system, (2 for unaided, 1 for assistance and 0 for inability). A total score can be achieved by summing the scores for all the individual items. The score can range from 0, if all the activities are failed, to 40, if all the activities are achieved.
All items have to be tested without thoracic braces or leg orthoses. The scale can be completed in a maximum of 15 minutes. (Main M, Kairon H, Mercuri E, Muntoni F. Eur J Paediatr Neurol. 2003;7:155-59.)
The scale was performed by 2 examiners (MP, SM) and each child was always assessed by the same examiner throughout the 3 assessments. Both observers had training sessions with a senior physiotherapist (MM) and the intra and inter-rater reliability was formally assessed in 5 children before starting the trial. In agreement with the previously reported data on intra and inter-observer reliability, these were >95%. (Main M, Kairon H, Mercuri E, Muntoni F. Eur J Paediatr Neurol. 2003;7:155-59.)
The primary measure of efficacy in this trial was the change from baseline to 3 and 9 weeks in motor function as determined by the Hammersmith motor scale. Secondary measures included the change from baseline to 3 and 9 weeks in myometry scores and in FVC in the children older than 5 years. The primary outcome was analysed using repeated measures ANOVA. Statistical significance was determined at p<0.05. An estimate of SD of change in each of the measures considered is presented with 95% confidence intervals. The number of children older than 5 years who could be reliably assessed for myometry and FVC was too small to allow any meaningful statistical analysis for these measures.

SMN2 genes = conditions: in vitro, cell cultures; cited from earlier work
[5] = tested on: SMA patients (muscle strength); test: Myometry with hand-held dynamometer, day 0 and day 7 (Example 1); type: in vivo, human
Procedure: as §1
Muscle strength was assessed using a hand-held dynamometer (Citec, CIT Technics BV). (Merlini L, Mazzone E S, Solari A, Morandi L. Muscle Nerve 2002; 26:64-70) Patients were tested independently four times by two raters, and the highest measure of the maximal voluntary isometric contraction was selected. Inter-rater coefficients (ICC) were determined as described by Shrout et al. (Shrout P E, Fleiss J L. Pscychol Bull 1979; 86:420-428)
F of Fisher, ANOVA and T of Student for independent variables tests were performed to assess statistical significance by using Winstat 4.01 and SPSS 10.0.1 for Windows software. P values <0.05 were accepted as significant.

[6] = i.v. administration, non-human primates; cited from earlier work
[7] = according to recent publications

O=C([O-])CCCc1ccccc1.[Na+] [triButyrate®, Sodium 4-phenylbutyrate]
metabolised to butyrate [1, 7]: ~25%
metabolised to sodium phenylacetate [1, 7]: approximately 75%
half-life ([1]; in vivo): 48 to 60 min
major joint's ranges (hips, knees, hamstrings, tendon Achilles and elbows) (children with SMA II): no difference
adverse events (SMA patients and parents; P6 on day 2 at 18 g/d, resolved after reducing to 12 g/d): dizziness and tinnitus
tolerability (SMA patients and parents; all subjects, 500 mg/kg/d for 7 days): tolerated the drug well except for P6
Full blood counts and liver function tests (SMA patients and parents; all subjects, days 0 and 7): did not show significant changes
head and trunk control (SMA patients and parents; patient P1, severe type II phenotype): slight improvement in head and trunk control
hand tremor (SMA patients and parents; patient P5 (type III), day 3 of treatment, later complete absence lasting 4 days after end of trial): reduction of hand tremor
Forced vital capacity, patients with increase ([2]; 4 patients older than 5 years): clear increase in 3 of the 4
FVC ([2]; T1, 3 weeks): 0.87 and 1.15 and 0.75 and 1.70
FVC ([2]; T2, 9 weeks): 1.18 and 1.23 and 1.22 and 1.74
side-effect [3]: increased blood pressure
motor function in the treated children ([4]; 9 weeks, 7 days on and 7 days off): significant increase in motor function
children in the study group with an increase in functional scores ([4]; 9 weeks, intermittent regimen): nine out of ten
Hammersmith functional scale score, mean ([4]; T1, 3 weeks after treatment was started): 14.8
Hammersmith functional scale score, mean ([4]; T2, 9 weeks after treatment was started): 17 and 16.6
children with an increase in functional scores of more than 2 points ([4]; of the ten children, 9 weeks): 6
expression of the SMN2 genes (SMN2 genes): can increase SMN2 gene expression in vitro
Foot dorsiflexion ([5]; T7 = day 7, P2, P3, P4 (type II), P6 (type III)): 15 (0.6) Newtons and 9 (0.81) Newtons and 11 (0.81) Newtons and 11 (0.9) Newtons
Arm strength ([5]; patients P3 and P4, less obvious than leg strength): increased
leg muscle strength on day 7 compared to baseline ([5]; three type II patients (P2-4), statistically significant in P3 and P4): increase in leg muscle strength
muscle performance by myometry ([5]; type III case (P6), reduced dosage): no changes in muscle performance
penetration into the cerebrospinal fluid (CSF) [6]: penetrates into the cerebrospinal fluid
